Target: T1, human DGAT1 (Homo sapiens, UniProt O75907)
T1 construct: Full length human DGAT10RF (1467 bp); 6xHis (pFastBac HTa vector leader) (N); made in house; host or cells: Sf21 insect cells (baculovirus); microsome fraction
T1 sequence (O75907 1-488): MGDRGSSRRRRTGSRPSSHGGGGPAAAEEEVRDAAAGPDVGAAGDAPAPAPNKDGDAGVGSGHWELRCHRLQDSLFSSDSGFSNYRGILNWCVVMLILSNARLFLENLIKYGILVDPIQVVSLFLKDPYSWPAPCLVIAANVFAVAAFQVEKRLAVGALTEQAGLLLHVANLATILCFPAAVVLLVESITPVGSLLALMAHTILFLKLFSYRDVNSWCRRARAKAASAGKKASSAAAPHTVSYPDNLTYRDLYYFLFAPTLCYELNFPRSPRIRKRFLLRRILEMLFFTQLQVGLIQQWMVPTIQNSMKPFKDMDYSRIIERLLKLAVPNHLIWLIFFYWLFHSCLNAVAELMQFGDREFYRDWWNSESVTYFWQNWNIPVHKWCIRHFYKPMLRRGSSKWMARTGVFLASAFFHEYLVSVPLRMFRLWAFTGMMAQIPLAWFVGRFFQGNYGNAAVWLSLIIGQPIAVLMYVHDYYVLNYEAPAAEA
Assay: Evaluation of DGAT1 enzyme inhibition (14C-oleoyl CoA, TLC of triglyceride)
Format: biochemical
Conditions: human DGAT1 microsomes from Sf21 cells, 30° C., 20 min
Method: DGAT assays for compound screening were carried out in 96-well round bottom plates in a total volume of 50 μl containing 25 mM Hepes pH 7.4, 150 mM NaCl, 2 mM MgCl2, 20 mM sodium fluoride, 1 mM dithiothreitol, 0.5 mg/mL BSA, 0.1% Triton X100, 200 uM DAG (1,2-dioleoyl-sn-glycerol) and 15 μM [^14C] oleoyl CoA (specific activity 50-60 mCi/mmol) and a range of inhibitor concentrations in 1% DMSO. Reactions were initiated by the addition of human DGAT1 microsomes (0.4 μg/well) followed by incubation at 30° C. for 20 min. At the end of incubation, reactions were stopped by the addition of 5 μl 0.5N HCl, then 4 μl of each reaction was spotted directly onto a silica gel 60 (20×20 cm) TLC plate pre-scored to give twenty 1 cm wide lanes for lipid separation. […]
Following chromatography, the triglyceride spots were cut out and placed in a scintillation vial for counting. The percentage inhibition values were calculated relative to control and where appropriate IC50 values were derived using the 4 parameter logistic model in XL fit.
The enzyme source used for the assay was prepared from Sf21 cells infected with baculovirus expressing human DGAT1. Full length human DGAT10RF (1467 bp) (Nucleotide Accession: NM 012079; Protein Accession: NP036211) was PCR amplified from human liver cDNA (Marathon Ready) and cloned into pFastBac HTa vector (Life Technologies) containing a 6-Histidine N-terminus. […]

SMILES	IC50
COC(=O)[C@H]1CC[C@H](c2ccc(NC(=O)c3cc4ccccc4s3)cn2)CC1 [Example 114, Trans-4-{5-[(Benzo[b]thiophene-2-carbonyl)amino]-pyridin-2-yl}-cyclohexane-carboxylic acid methyl ester]	1800 nM
COc1ccc(C)cc1NC(=O)Nc1ccc([C@H]2CC[C@](O)(CC(=O)O)CC2)cc1 [Example 137, Syn-(1-Hydroxy-4-{4-[3-(2-methoxy-5-methylphenyl)-ureido]phenyl}-cyclohexyl)-acetic acid]	1300 nM

— US20100093733A1, “AMIDE AND UREA DERIVATIVES FOR THE TREATMENT OF METABOLIC DISEASES” (PROSIDION LIMITED, priority 2007, published 2010)
